Test results as given in patent US20170349593A1, “BTK INHIBITORS” (MERCK SHARP & DOHME CORP., priority 2014, published 2017).

Legend:
[1] = molecular target: T1, BTK enzyme (recombinant full-length BTK, hBTK) (Homo sapiens, UniProt Q06187); experiment: Btk enzyme activity assay (LANCE TR-FRET); format: biochemical; conditions: 50 pM hBTK, 25 μM ATP, 60 minute compound and enzyme incubation, concentration range 1 μM to 0.017 nM, read-out: BTK binding IC50
T1 construct: recombinant protein from baculovirus-transfected S 19 cells: full-length BTK, 6 HIS-tag cleaved; 6 HIS-tag (cleaved yes); made in house

[2] = system: adenosine uptake into HeLa cells; experiment: [3H]Adenosine uptake assay; format: cell-based; conditions: Homo sapiens; accumulation of [3H]adenosine into HeLa cells; concentration range 10 μM to 0.032 nM; read-out: ADU inhibition IC50
Method: Compounds are also screened in an adenosine uptake functional cellular assay using the protocol described below:
Adenosine uptake activity was determined by monitoring the accumulation of tritiated adenosine into HeLa cells (ATCC catalog #CCL-2) using a PMT-based radiometric detection instrument. In this assay, the potency (IC50) of each compound was determined from a ten point (1:3 serial dilution; final compound concentration range in assay from 10 μM to 0.032 nM) titration curve using the following outlined procedure. To each well of a 96-well CytoStar-T scintillating microplate (Perkin Elmer Catalog #RPNQ0163), 25 000 HeLa cells in 100 μL of growth medium comprising: Minimum Essential Media (Life Technologies Catalog #11095-080)+10% (v/v) foetal bovine serum (FBS; Sigma Aldrich Catalog #F2442) was added. These cells were incubated overnight at 37° C. in a humidified atmosphere with 5% (v/v) CO2. After this time the growth medium was removed and replaced with 40 μL assay medium comprising: Hanks balanced salts solution (HBSS; Thermo Fisher Catalog # SH30268.01)+5% (v/v) FBS. Compound stock solutions in DMSO were diluted in assay medium to 2.5× final compound concentration maintaining a constant DMSO concentration of 0.25% (v/v). 40 μL of compound in assay medium was dispensed into individual wells of the Cytostar-T plates and the plates were incubated for 30 minutes under ambient laboratory conditions. Following this incubation, 20 μL of 500 nM [^3H] adenosine (American Radiolabeled Chemicals Inc. Catalog #ART0287) in assay medium was added and incubated for a further 60 minutes under ambient laboratory conditions. The amount of radiolabel accumulation was then determined using a Perkin Elmer Topcount NXT microplate reader. In brief, HeLa cells adhere to the bottom of the Cytostar-T plate, uptake of [^3H]adenosine into these cells brings the radiolabel into sufficient proximity to excite the scintillant in the base of the plates. These events are captured by single PMT, time-resolved coincidence counting. IC50 values were determined by 4 parameter robust fit of counts per second values vs. (Log10)) compound concentrations.

T1 sequence (Q06187 whole entry): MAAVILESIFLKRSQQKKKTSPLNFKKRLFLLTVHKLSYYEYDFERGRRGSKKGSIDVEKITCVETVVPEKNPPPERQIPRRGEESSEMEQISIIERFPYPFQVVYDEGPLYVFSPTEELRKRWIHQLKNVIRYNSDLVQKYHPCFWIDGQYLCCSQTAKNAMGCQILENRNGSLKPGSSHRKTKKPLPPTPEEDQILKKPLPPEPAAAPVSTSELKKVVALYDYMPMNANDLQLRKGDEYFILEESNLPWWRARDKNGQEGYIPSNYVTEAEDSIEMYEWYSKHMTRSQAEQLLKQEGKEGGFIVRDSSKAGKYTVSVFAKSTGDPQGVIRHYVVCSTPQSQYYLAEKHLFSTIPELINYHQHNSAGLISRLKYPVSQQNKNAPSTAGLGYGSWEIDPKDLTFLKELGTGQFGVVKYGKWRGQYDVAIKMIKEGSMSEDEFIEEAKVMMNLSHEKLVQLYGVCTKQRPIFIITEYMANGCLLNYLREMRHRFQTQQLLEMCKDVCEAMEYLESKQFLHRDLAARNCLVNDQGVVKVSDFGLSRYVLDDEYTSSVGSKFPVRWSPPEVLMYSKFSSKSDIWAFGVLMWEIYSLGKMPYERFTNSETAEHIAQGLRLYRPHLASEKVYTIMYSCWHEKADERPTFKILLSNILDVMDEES

Row | IC50 [1] [nM] | IC50 [2] [nM] | Compound
1 | 1.42 | 3120 | CCOc1cc(C(=O)Nc2cc(C(F)(F)F)ccn2)ccc1-c1nc([C@H]2CN(C(=O)[C@@H](C)O)[C@@H](C)CO2)n2c(Cl)cnc(N)c12 [Example 11, 4-(8-amino-5-chloro-3-{(2R,5S)-4-[(2R)-2-hydroxypropanoyl]-5-methylmorpholin-2-yl}imidazo[1,5-a]pyrazin-1-yl)-3-ethoxy-N-[4-(trifluoromethyl)pyridin-2-yl]benzamide]
2 | 8.81 |  | COCC(=O)N1C[C@H](c2nc(-c3ccc(C(=O)Nc4cc(C(F)(F)F)ccn4)cc3F)c3c(N)nccn23)OC[C@H]1CO [Example 56, 4-{8-amino-3-[(2R,5R)-5-(hydroxymethyl)-4-(methoxyacetyl)morpholin-2-yl]imidazo[1,5-a]pyrazin-1-yl}-3-fluoro-N-[4-(trifluoromethyl)pyridin-2-yl]benzamide]
3 | 6.92 |  | CS(=O)(=O)CC(=O)N1C[C@H](c2nc(-c3ccc(C(=O)Nc4cc(C(F)(F)F)ccn4)cc3F)c3c(N)nccn23)OC[C@H]1CO [Example 58, 4-(8-amino-3-{(2R,5R)-5-(hydroxymethyl)-4-[(methylsulfonyl)acetyl]morpholin-2-yl}imidazo[1,5-a]pyrazin-1-yl)-3-fluoro-N-[4-(trifluoromethyl)pyridin-2-yl]benzamide]
4 | 12.2 |  | C[C@H](O)C(=O)N1C[C@H](c2nc(-c3ccc(C(=O)Nc4cc(C(F)(F)F)ccn4)cc3F)c3c(N)nccn23)OC[C@H]1CO [Example 59, 4-(8-amino-3-{(2R,5R)-5-(hydroxymethyl)-4-[(2S)-2-hydroxypropanoyl]morpholin-2-yl}imidazo[1,5-a]pyrazin-1-yl)-3-fluoro-N-[4-(trifluoromethyl)pyridin-2-yl]benzamide]
5 | 0.374 |  | CNC(=O)N1C[C@H](c2nc(-c3ccc(C(=O)Nc4cc(C(F)(F)F)ccn4)c(F)c3)c3c(N)nccn23)CC[C@@H]1C [Example 94, (2S,5R)-5-[8-amino-1-(3-fluoro-4-{[4-(trifluoromethyl)pyridin-2-yl]carbamoyl}phenyl)imidazo[1,5-a]pyrazin-3-yl]-N,2-dimethylpiperidine-1-carboxamide]

Further lines, the compound ahead of its results:

Row | Compound | IC50 [1] [nM] | IC50 [2] [nM]
6 | CCOc1cc(C(=O)Nc2cc(C(F)(F)F)ccn2)ccc1-c1nc([C@@H]2CC[C@H](C(F)(F)F)N(C(=O)C3CC3)C2)n2ccnc(N)c12 [Example 1, 4-{8-amino-3-[(3R,6R)-1-(cyclopropylcarbonyl)-6-(trifluoromethyl)piperidin-3-yl]imidazo[1,5-a]pyrazin-1-yl}-3-ethoxy-N-[4-(trifluoromethyl)pyridin-2-yl]benzamide] | 347 | 918
7 | CCOc1cc(C(=O)Nc2cc(C(F)(F)F)ccn2)ccc1-c1nc([C@H]2CC[C@H](C(F)(F)F)N(C(=O)C3CC3)C2)n2ccnc(N)c12 [Example 2, 4-{8-amino-3-[(3S,6R)-1-(cyclopropylcarbonyl)-6-(trifluoromethyl)piperidin-3-yl]imidazo[1,5-a]pyrazin-1-yl}-3-ethoxy-N-[4-(trifluoromethyl)pyridin-2-yl]benzamide] | 1.38 | 918
8 | CCOc1cc(C(=O)Nc2cc(C(F)(F)F)ccn2)ccc1-c1nc([C@H]2CC[C@@H](C(F)(F)F)N(C(=O)C3CC3)C2)n2ccnc(N)c12 [Example 3, 4-{8-amino-3-[(3S,6S)-1-(cyclopropylcarbonyl)-6-(trifluoromethyl)piperidin-3-yl]imidazo[1,5-a]pyrazin-1-yl}-3-ethoxy-N-[4-(trifluoromethyl)pyridin-2-yl]benzamide] | 1000 | 859
9 | CCOc1cc(C(=O)Nc2cc(C(F)(F)F)ccn2)ccc1-c1nc([C@@H]2CC[C@@H](C(F)(F)F)N(C(=O)C3CC3)C2)n2ccnc(N)c12 [Example 4, 4-{8-amino-3-[(3R,6S)-1-(cyclopropylcarbonyl)-6-(trifluoromethyl)piperidin-3-yl]imidazo[1,5-a]pyrazin-1-yl}-3-ethoxy-N-[4-(trifluoromethyl)pyridin-2-yl]benzamide] | 39.4 | 1060
10 | CCOc1cc(C(=O)Nc2cc(C(F)(F)F)n(C)n2)ccc1-c1nc([C@H]2CN(C(=O)C3CC3)[C@@H](C)CO2)n2c(Cl)cnc(N)c12 [Example 5, 4-{8-amino-5-chloro-3-[(2R,5S)-4-(cyclopropylcarbonyl)-5-methylmorpholin-2-yl]imidazo[1,5-a]pyrazin-1-yl}-3-ethoxy-N-[1-methyl-5-(trifluoromethyl)-1H-pyrazol-3-yl]benzamide] | 7.14 | ≥ 10000
11 | CCOc1cc(C(=O)Nc2cc(C(F)(F)F)n(C)n2)ccc1-c1nc([C@H]2CN(C(=O)[C@H](C)O)[C@@H](C)CO2)n2c(Cl)cnc(N)c12 [Example 6, 4-(8-amino-5-chloro-3-{(2R,5S)-4-[(2S)-2-hydroxypropanoyl]-5-methylmorpholin-2-yl}imidazo[1,5-a]pyrazin-1-yl)-3-ethoxy-N-[1-methyl-5-(trifluoromethyl)-1H-pyrazol-3-yl]benzamide] | 5.73 | ≥ 10000
12 | CCOc1cc(C(=O)Nc2cc(C(F)(F)F)ccn2)ccc1-c1nc([C@H]2CN(C(=O)C(C)C)[C@@H](C)CO2)n2c(Cl)cnc(N)c12 [Example 7, 4-{8-amino-5-chloro-3-[(2R,5S)-5-methyl-4-(2-methylpropanoyl)morpholin-2-yl]imidazo[1,5-a]pyrazin-1-yl}-3-ethoxy-N-[4-(trifluoromethyl)pyridin-2-yl]benzamide] | 1.67 | ≥ 10000
13 | CCOc1cc(C(=O)Nc2cc(C(F)(F)F)ccn2)ccc1-c1nc([C@H]2CN(C(=O)C3CC3)[C@@H](C)CO2)n2c(Cl)cnc(N)c12 [Example 8, 4-{8-amino-5-chloro-3-[(2R,5S)-4-(cyclopropylcarbonyl)-5-methylmorpholin-2-yl]imidazo[1,5-a]pyrazin-1-yl}-3-ethoxy-N-[4-(trifluoromethyl)pyridin-2-yl]benzamide] | 1.19 | ≥ 10000
14 | CCc1cnc(N)c2c(-c3ccc(C(=O)Nc4cc(C(F)(F)F)ccn4)cc3OC)nc([C@H]3CN(C(=O)C4CC4)[C@@H](C)CO3)n12 [Example 9, 4-{8-amino-3-[(2R,5S)-4-(cyclopropylcarbonyl)-5-methylmorpholin-2-yl]-5-ethylimidazo[1,5-a]pyrazin-1-yl}-3-methoxy-N-[4-(trifluoromethyl)pyridin-2-yl]benzamide] | 3.76 | 2680
15 | C=Cc1cnc(N)c2c(-c3ccc(C(=O)Nc4cc(C(F)(F)F)ccn4)cc3OC)nc([C@H]3CN(C(=O)C4CC4)[C@@H](C)CO3)n12 [Example 10, 4-{8-amino-3-[(2R,5S)-4-(cyclopropylcarbonyl)-5-methylmorpholin-2-yl]-5-ethenylimidazo[1,5-a]pyrazin-1-yl}-3-methoxy-N-[4-(trifluoromethyl)pyridin-2-yl]benzamide] | 0.528 | 1200
16 | C[C@H]1CO[C@@H](c2nc(-c3ccc(C(=O)Nc4cc(C(F)(F)F)ccn4)cc3F)c3c(N)nccn23)CN1C(=O)C1CC1 [Example 86, 4-{8-amino-3-[(2R,5S)-4-(cyclopropylcarbonyl)-5-methylmorpholin-2-yl]imidazo[1,5-a]pyrazin-1-yl}-3-fluoro-N-[4-(trifluoromethyl)pyridin-2-yl]benzamide] |  | 246
